Experimental data published in patent EP0963755A2, “Use of benzopyranes for preventing allograft rejection” (Pfizer Products Inc., priority 1998, dated 1999).

Test system: acute allograft rejection
Test: murine cardiac ear pinna model of acute allograft rejection (non-vascularized cardiac tissue transplantation)
Type: in vivo
Settings: monotherapy; for Graft Survival, Mean ± Std Dev (mean survival days): day 0 to 17, BALB/C neonatal hearts into C3H/HeN ear pinna, assessed day 6 to 18
Excerpt: Methods: A rapid, facile 2-week murine bioassay of non-vascularized cardiac tissue transplantation,t he murine cardiac ear pinna model of acute allograft rejection, was used to evaluate the dose-response relationship of immunosuppressive drugs on allograft rejection. In this model, donor BALB/C (H2^d) neonatal hearts are transplanted into recipient C3H/HeN (H2^k) ear pinna pouches without vacular anastomoses. Survivinghearts are revascularized and usually resume beating on day 3 to 6. Untreated allografts failed prior to day 12 (MST = 10.5 + 0.9d, n=13). Isografts survived indefinitely. All compounds are given on day 0 to 17 COMPOUND P [(+)-2-[3,4-dihydro(3S,4R)-4-hydroxy-3-(4-phenyl-phenylmethyl)-7-(2H,1-benzopyran)]cyclopentane carboxylic acid] was given orally in 0.5% Methylcellulose. Grafts were assessed by visual examination for contraction on alternate days (from 6 to 18) and graft survival was defined as the post-transplant day on which contractions cease. Efficacy data from day 6 to 18 is presented as mean survival days (+SD) and was analyzed by Log Rank Analysis. Graft survival values were determined at day 18. Any graft surviving at day 18 was censored for statistical purposes.

## O=C(O)C1CCCC1c1ccc2c(c1)OC[C@H](Cc1ccc(-c3ccccc3)cc1)[C@H]2O (single isomer, unassigned; (+)) [COMPOUND P]
Highest dose, 300 mg/kg d
  efficacy as a single agent in acute rejection (graft survival on day 18): significant (p<0.01)
Lower doses tested (200, 100, and 30 mg/kg)
  efficacy as a single agent in acute rejection (graft survival on day 18): not at the lower doses tested
30 mg/kg/d orally in 0.5% Methylcellulose
  Graft Survival, Mean ± Std Dev (mean survival days): 11.0 ± 1.1 days
100 mg/kg/d orally in 0.5% Methylcellulose
  Graft Survival, Mean ± Std Dev (mean survival days): 10.3 ± 0.7 days
200 mg/kg/d orally in 0.5% Methylcellulose
  Graft Survival, Mean ± Std Dev (mean survival days): 10.3 ± 0.7 days
300 mg/kg/d orally in 0.5% Methylcellulose
  Graft Survival, Mean ± Std Dev (mean survival days): 11.8 ± 1.1 days
